In article PMC4811591, “Role of the Substrate Specificity-Defining Residues of Human SIRT5 in Modulating the Structural Stability and Inhibitory Features of the Enzyme” (PLoS ONE, 2016):
Numbering of substitutions follows the chain as printed. One block for each compound: values may come before it.

Tests used:
SIRT5 Y102A [1] = target: T1, SIRT5 Y102A (Homo sapiens, UniProt Q9NXA8, Y102A); assay: SIRT5 Y102A desuccinylation reaction, trypsin coupled assay with Ac-SucLys-AMC; assay type: biochemical
T1 construct: SIRT1 (193–747) and SIRT5 (51–301) were cloned into the pLIC-His expression vector; His tag (pLIC-His vector); made in house; host or cells: E. coli BL21(DE3) Star
T1 sequence (Q9NXA8 51-301 Y102A): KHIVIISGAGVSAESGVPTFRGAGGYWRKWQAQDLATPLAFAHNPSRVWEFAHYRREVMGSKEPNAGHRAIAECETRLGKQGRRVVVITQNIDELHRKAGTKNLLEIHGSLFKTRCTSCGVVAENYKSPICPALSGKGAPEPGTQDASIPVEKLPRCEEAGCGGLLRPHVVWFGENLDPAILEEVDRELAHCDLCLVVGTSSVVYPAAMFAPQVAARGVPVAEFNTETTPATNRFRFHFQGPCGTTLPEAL
Procedure: (§1) The sirtuin catalyzed deacetylase and desuccinylase reactions were measured via the trypsin coupled assay system as described by Madsen et al. […] Since trypsin was used as a coupling enzyme, its concentration was optimized to ensure the emergence of minimal or negligible lag-phase prior to the onset of the steady state phase. […] The steady state rates of the enzyme catalyzed reactions were derived from the time dependent changes in the fluorescence signal, and the data were analyzed by the ternary complex kinetic mechanism (Eq 4) via Grafit 4 software.
(§2) The steady-state kinetic data were fitted globally by the competitive, mixed, and noncompetitive inhibition models using the DYNAFIT software based on the rapid-equilibrium approximation. All the parameters were allowed to float except for the enzyme concentration. The software utilizes several model-discrimination criteria, including the second order Akaike Information Criterion (AIC), so that the best model out of the three different candidates could be identified.
(§3) Other reaction conditions were the same as described above. The data were fitted by Eq 5 by Grafit 4.0.

SIRT5 wild type [2] = target: T2, SIRT5 wild type (Homo sapiens, UniProt Q9NXA8); assay: SIRT5 wild type deacetylation reaction, trypsin coupled fluorescence assay with Fluor-de-lys; assay type: biochemical; conditions: 50 μM EX527; substrate not stated in the sentence (method: 100 μM Fluor-de-lys, 500 μM NAD^+)
T2 construct: SIRT1 (193–747) and SIRT5 (51–301) were cloned into the pLIC-His expression vector; His tag (pLIC-His vector); made in house; host or cells: E. coli BL21(DE3) Star
T2 sequence (Q9NXA8 51-301): T1 sequence (Q9NXA8 51-301 Y102A) with A52Y
Procedure: (§4) The sirtuin catalyzed deacetylase and desuccinylase reactions were measured via the trypsin coupled assay system as described by Madsen et al. The enzyme reactions were carried out at 25°C in 50 mM Tris-HCl assay buffer, pH 8.0, containing 137 mM NaCl, 2.7 mM KCl, 1 mM MgCl2, and 1 mg/mL bovine serum albumin. Since trypsin was used as a coupling enzyme, its concentration was optimized to ensure the emergence of minimal or negligible lag-phase prior to the onset of the steady state phase. The bi-substrate kinetic experiments were performed by varying the concentrations of NAD^+ (from 100 to 500 μM) and Ac-SucLys-AMC or Fluor-de-lys® substrates (from 100 μM to 1200 μM) using 0.8 μM trypsin as the coupling enzyme. The steady state rates of the enzyme catalyzed reactions were derived from the time dependent changes in the fluorescence signal, and the data were analyzed by the ternary complex kinetic mechanism (Eq 4) via Grafit 4 software.
(§5) The steady-state kinetic data were fitted globally by the competitive, mixed, and noncompetitive inhibition models using the DYNAFIT software based on the rapid-equilibrium approximation. All the parameters were allowed to float except for the enzyme concentration. […]

SIRT5 Y102A/R105I [3] = target: T3, SIRT5 Y102A/R105I (Homo sapiens, UniProt Q9NXA8, R105I/Y102A); assay: SIRT5 Y102A/R105I deacetylation reaction, trypsin coupled assay with Fluor-de-lys; assay type: biochemical
T3 construct: SIRT1 (193–747) and SIRT5 (51–301) were cloned into the pLIC-His expression vector; His tag (pLIC-His vector); made in house; host or cells: E. coli BL21(DE3) Star
T3 sequence (Q9NXA8 51-301 Y102A/R105I): T1 sequence (Q9NXA8 51-301 Y102A) with R55I
Procedure: as §1, §2, §3

SIRT5 Y102A [4] = target: T1, SIRT5 Y102A; assay: SIRT5 Y102A deacetylation reaction, trypsin coupled assay with Fluor-de-lys; assay type: biochemical
Procedure: as §1, §2, §3

wild type SIRT5 = target: T4, wild type SIRT5 (Homo sapiens, UniProt Q9NXA8); assay: Isothermal titration calorimetry, binding of EX527 to wild type SIRT5; conditions: ITC, either in the absence or the presence of NAD^+ (10 mM)
T4 construct: SIRT1 (193–747) and SIRT5 (51–301) were cloned into the pLIC-His expression vector; His tag (pLIC-His vector); made in house; host or cells: E. coli BL21(DE3) Star
T4 sequence (Q9NXA8 51-301): T1 sequence (Q9NXA8 51-301 Y102A) with A52Y

SIRT5 R105I [5] = target: T5, SIRT5 R105I (Homo sapiens, UniProt Q9NXA8, R105I); assay: SIRT5 R105I desuccinylation reaction, trypsin coupled assay with Ac-SucLys-AMC; assay type: biochemical
T5 construct: SIRT1 (193–747) and SIRT5 (51–301) were cloned into the pLIC-His expression vector; His tag (pLIC-His vector); made in house; host or cells: E. coli BL21(DE3) Star
T5 sequence (Q9NXA8 51-301 R105I): T1 sequence (Q9NXA8 51-301 Y102A) with A52Y, R55I
Procedure: as §4, §5

SIRT5 R105I [6] = target: T5, SIRT5 R105I; assay: SIRT5 R105I deacetylation reaction, trypsin coupled assay with Fluor-de-lys; assay type: biochemical
Procedure: as §1, §2, §3

SIRT5 Y102A/R105I [7] = target: T3, SIRT5 Y102A/R105I; assay: Isothermal titration calorimetry, binding of EX527 to SIRT5 Y102A/R105I; conditions: ITC
Procedure: (§6) Isothermal titration calorimetric experiment was performed in duplicates on a VP-ITC device (Microcal Inc., Northampton, MA). Prior to the titration experiment, both enzyme and inhibitor were thoroughly degassed under vacuum. The sample cell was filled with 1.8 mL (effective volume = 1.4 mL) of 20 μM Y102A/R105I mutant SIRT5 and 0 or 10 mM NAD^+ in 50 mM HEPES buffer, pH 7.5, containing 100 mM NaCl, 10% glycerol and 1 mM TCEP. […] The data were analyzed by the ITC data analysis module of Origin Software using the single-site binding model as described by Wiseman et al. All the parameters were allowed to vary during the curve-fitting. […] The binding free energy (ΔG°) and the entropic (ΔS°) changes were calculated by Eqs 6 and 7, respectively ΔG°=−RTlnKa (6) ΔS°=ΔH°−ΔG°/T (7)
The latter value translates to the ΔG° of binding as being equal to −7.3 ± 0.1 kcal/mol. Given the ΔH° and ΔG° values, the TΔS° was calculated to be 2.03 kcal/mol.

SIRT1 [8] = target: T6, SIRT1 (Homo sapiens, UniProt Q96EB6); assay: SIRT1 desuccinylation reaction, trypsin coupled assay with Ac-SucLys-AMC; assay type: biochemical; conditions: succinyl substrate
T6 construct: SIRT1 (193–747) and SIRT5 (51–301) were cloned into the pLIC-His expression vector; His tag (pLIC-His vector); made in house; host or cells: E. coli BL21(DE3) Star
T6 sequence (Q96EB6 193-747): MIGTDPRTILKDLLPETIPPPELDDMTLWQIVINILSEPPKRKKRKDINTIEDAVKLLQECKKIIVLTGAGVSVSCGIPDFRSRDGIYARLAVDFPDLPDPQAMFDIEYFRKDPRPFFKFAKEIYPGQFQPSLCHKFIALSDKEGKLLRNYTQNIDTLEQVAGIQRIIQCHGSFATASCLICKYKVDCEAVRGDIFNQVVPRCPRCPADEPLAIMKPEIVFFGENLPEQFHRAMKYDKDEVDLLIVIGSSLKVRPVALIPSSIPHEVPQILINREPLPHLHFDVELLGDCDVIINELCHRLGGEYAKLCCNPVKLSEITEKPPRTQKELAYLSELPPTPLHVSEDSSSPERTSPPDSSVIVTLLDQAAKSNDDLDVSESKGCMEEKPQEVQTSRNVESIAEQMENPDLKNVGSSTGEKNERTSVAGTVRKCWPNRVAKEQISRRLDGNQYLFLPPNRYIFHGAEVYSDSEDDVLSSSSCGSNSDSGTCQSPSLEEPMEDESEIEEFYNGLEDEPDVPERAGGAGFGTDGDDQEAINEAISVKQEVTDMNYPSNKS
Procedure: as §4

SIRT5 wild type [9] = target: T2, SIRT5 wild type; assay: SIRT5 wild type desuccinylation reaction, trypsin coupled fluorescence assay with Ac-SucLys-AMC; assay type: biochemical; conditions: for IC50: SIRT5 desuccinylation
Procedure: as §1, §2, §3

SIRT5-substrate complex = target: T7, SIRT5-substrate complex (Homo sapiens, UniProt Q9NXA8); assay: Isothermal titration calorimetry, binding of nicotinamide to SIRT5-substrate complex; conditions: ITC, 20 μM SIRT5 in the presence of 1 mM Ac-Suclys-AMC
T7 construct: SIRT1 (193–747) and SIRT5 (51–301) were cloned into the pLIC-His expression vector; His tag (pLIC-His vector); made in house; host or cells: E. coli BL21(DE3) Star
T7 sequence (Q9NXA8 51-301): T1 sequence (Q9NXA8 51-301 Y102A) with A52Y
Procedure: as §6, with “vacuum.” for “vacuum. The sample cell was filled with 1.8 mL (effective volume = 1.4 mL) of 20 μM Y102A/R105I mutant SIRT5 and 0 or 10 mM NAD^+ in 50 mM HEPES buffer, pH 7.5, containing 100 mM NaCl, 10% glycerol and 1 mM TCEP.”
(TIF) Click here for additional data file.

SIRT1 [10] = target: T6, SIRT1; assay: SIRT1 deacetylation reaction, trypsin coupled assay with Fluor-de-lys; assay type: biochemical; conditions: for IC50: SIRT1 deacetylation
Procedure: as §1, §2, §3

SIRT5 = system: SIRT5; set-up: method as in PMID 22583019; conditions: same succinylated substrate, fixed substrate concentration; read-out: Km,NAD (apparent); cited from earlier work
[11] = desuccinylation, succinyl substrate
[12] = deacetylation, against NAD^+, 500 μM Fluo-de-lys, NAD^+ 200 to 1300 μM
[13] = deacetylation, acetylated substrate, at 800 μM nicotinamide
[14] = deacetylation, against NAD^+, 100 μM Fluo-de-lys, NAD^+ 40 to 300 μM

SMILES: NC(=O)C1CCCc2c1[nH]c1ccc(Cl)cc21 (centres unmarked) [EX527, 6-chloro-2,3,4,9-tetrahydro-1H-carbazole-1-carboxamide]
inhibition by EX527 (SIRT5 Y102A [1]; 50 μM EX527, succinylated substrate): no inhibition
inhibition by EX527 (SIRT5 wild type [2]): not inhibited
IC50 (SIRT5 Y102A/R105I [3]): 0.0217 ± 0.001 mM
inhibition at 50 µM (SIRT5 Y102A [4]): ~14%
binding (heat signals) (wild type SIRT5): only miniscule heat signals
inhibition at 50 µM (SIRT5 R105I [5]): ~22%
inhibition at 50 µM (SIRT5 R105I [6]): ~22%
binding (SIRT5 Y102A/R105I [7]; in the absence of NAD^+): binds weakly
ΔH° (SIRT5 Y102A/R105I [7]; presence of 10 mM NAD^+, pH 7.5, 25°C): -5.3 ± 0.1 kcal/mol
stoichiometry n (SIRT5 Y102A/R105I [7]; presence of 10 mM NAD^+, pH 7.5, 25°C, single site binding model): 1.2
ΔG° of binding (SIRT5 Y102A/R105I [7]; presence of 10 mM NAD^+, calculated from Ka): -7.3 ± 0.1 kcal/mol
TΔS° (SIRT5 Y102A/R105I [7]; presence of 10 mM NAD^+, calculated from ΔH° and ΔG°): 2.03 kcal/mol

kcat (SIRT5 Y102A [1]; [11]): 27.4 ± 4.9 ×10^−5 s^-1
Km (SIRT5 Y102A [1]; desuccinylation, succinyl substrate, read-out: Km,sub): 300 ± 54 µM
desuccinylase activity (SIRT1 [8]): no detectable desuccinylase activity
kcat (SIRT5 wild type [9]; [11]): 383.2 ± 38.3 ×10^−5 s^-1
Km (SIRT5 wild type [9]; desuccinylation, succinyl substrate, 25°C, pH 8.0, read-out: Km,sub): 290 ± 29 µM
SMILES: CC(=O)N[C@@H](CCCCNC(=O)CCC(=O)O)C(=O)Nc1ccc2c(C)cc(=O)oc2c1 [Ac-SucLys-AMC]

SMILES: NC(=O)c1cccnc1 [Nicotinamide]
Inhibition Mode (SIRT5 Y102A [1]; desuccinylation, against NAD^+, 500 μM Ac-SucLys-AMC, NAD^+ 70 to 800 μM): Competitive
Inhibition Mode (SIRT5 Y102A/R105I [3]; [12]): Mixed
Ki’ (mixed inhibition) (SIRT5 Y102A/R105I [3]; [12]): 0.2672 ± 0.0524 mM
% inhibition (SIRT5 Y102A [4]; [13]): N/A, 36% inhibition at 800μM
inhibition at 800 µM (SIRT5 Y102A [4]; [13]): ~36%
Ka (SIRT5-substrate complex): (2.5 ± 0.3) × 10^4 M^-1
Inhibition Mode (SIRT1 [10]; [14]): Mixed
Ki’ (mixed inhibition) (SIRT1 [10]; [14]): 0.3405 ± 0.1024 mM
inhibition at 800 µM (SIRT5 R105I [6]): 40%
Inhibition Mode (SIRT5 wild type [9]; desuccinylation, against NAD^+, 100 μM Ac-SucLys-AMC, NAD^+ 40 to 300 μM): Competitive

SMILES: NC(=O)c1ccc[n+]([C@@H]2O[C@H](COP(=O)([O-])OP(=O)(O)OC[C@H]3O[C@@H](n4cnc5c(N)ncnc54)[C@H](O)[C@@H]3O)[C@@H](O)[C@H]2O)c1 [NAD, nicotinamide adenine dinucleotide]
Km (SIRT5): 150 ± 45 µM

IC50 (SIRT1 [10]; in the presence of 50 μM NAD^+): 7 ± 2.9 mM
IC50 (SIRT1 [10]; in the presence of 5 mM NAD^+): 8.9 ± 3.3 mM
IC50 (SIRT5 wild type [9]; in the presence of 50 μM NAD^+): 11.1 ± 2.2 mM
IC50 (SIRT5 wild type [9]; in the presence of 5 mM NAD^+): 17.1 ± 4 mM
SMILES: NC(=O)c1ccncc1 [isonicotinamide]
